The source made the active and inactive calls.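 Rule for the calls: active = compounds giving half or more protection of infected cells from virus-caused growth loss, again on retest; inactive = the rest.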 Where a SMILES comes first, the peptide text is derived from it.
Test system: CEM cells HIV-1 protection, formazan growth assay
Assay: NCI AIDS Antiviral Assay
Conditions: for IC50: measured here: growth of uninfected CEM cells
How it was run: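 Soluble formazan readout of cell growth; CEM cells ± HIV-1; 5 drug concs. ≥50% protection → retest; ≥50% again = moderately active; reproducible 100% = confirmed active.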

Row | SMILES | EC50 [µM] | IC50 [µM] | outcome
1 | COC(=O)CSSCc1ccc([N+](=O)[O-])cc1 | > 200 | 3.47 | 
2 | Cc1nn(C(=O)CC(=O)Nc2ccc(Cl)cc2)c(C)c1N=Nc1ccccc1F |  |  | inactive
3 | CC1OC(n2cc(I)c(=O)[nH]c2=O)C=CC1=O (stereo unspecified) | > 347 | 2.14 | 
4 | CN(C)c1ccc2nc(CC(O)(C(F)(F)F)C(F)(F)F)ccc2c1 | > 200 | > 200 | 
5 | Cc1cc(N=Nc2ccc(C(=O)Nc3ccc4cc(S(=O)(=O)O)ccc4c3)cc2)c(N)c(N=Nc2ccc(N=Nc3ccc(O)c(C(=O)O)c3)cc2)c1N | 14.8 | > 100 | 
6 | CC(C)(CN(Cc1ccccc1)Cc1ccccc1)[N+](=O)[O-] |  |  | inactive
7 | Cc1c(Cl)cccc1Nc1ncccc1C(=O)O | > 200 | > 100 | 
8 | c1ccc2c(c1)nc1n2C2CCC(C2)N1 (stereo unspecified) | > 200 | > 200 | 
9 | Cn1c(=O)n2n(c1=O)C1C3C4C5C3C13COCC53C42 (stereo unspecified) |  |  | inactive
10 | Cc1cc2nc3nc(N)nc(NS(=O)(=O)c4cc(C)c(Cl)cc4S)n3c2cc1C | 102 | 380 | 
11 | CCN(CC)C(=O)c1c(N2CCOCC2)cc(N(CC)CC)oc1=O | > 708 | > 708 | 
12 | Cn1c(=O)c2c(nc3n(CCCCl)c(=O)ccn23)n(C)c1=O | > 200 | > 100 | 
13 | COc1ccc(C2=C(Cl)c3cc(OC)c(OC)cc3C2)cc1OC | > 200 | > 200 | 
14 | C=C1C2Oc3ccccc3C1N(c1ccccc1)O2 (stereo unspecified) |  |  | inactive
15 | CC(C)CC(NC(=O)CNC(=O)C(CC(C)C)NC(=O)C(Cc1c[nH]cn1)NC(=O)C(CC(N)=O)NC(=O)C(C)NC(=O)C1CCCN1C(=O)C(Cc1ccc(O)cc1)NC(=O)C1CCCN1C(=O)C(C)NC(=O)C(CCC(=O)O)NC(=O)C(CC(=O)O)NC(=O)C(Cc1ccccc1)NC(=O)C(CC(N)=O)NC(=O)C(C)N)C(=O)O (stereo unspecified) (H-ANFDEAPYPANHLGL-OH; configuration not given here) | > 38 | > 38 | 
16 | O=C(O[C@@H]1C(=O)N2CC[C@H]3OC(O)[C@@H]1[C@H]32)c1ccc([N+](=O)[O-])cc1 (stereo partly specified) | > 200 | > 200 | 
17 | Cc1cc(=O)n(-c2ccccc2)c(=S)n1-c1nc2ccccc2[nH]1 | > 107 | 63.1 | 
18 | O=C(O)c1cc2c(cn1)[nH]c1ccccc12 |  |  | inactive
19 | O=c1cnc2c(ccc3ccccc32)[nH]1 | > 182 | > 182 | 
20 | CC(C)[Si](CC1=CCCCC12C(=O)N(COCC[Si](C)(C)C)c1ccccc12)(C(C)C)C(C)C (stereo unspecified) | > 200 | > 200 | 
21 | CN(C)c1ccc(NN=C2SC(=Nc3ccccc3)C(=Nc3ccccc3)S2)cc1 | > 200 | 8.13 | 
22 | COc1ccc(C2NC(=S)N3C(c4ccc(OC)c(OC)c4)NC(=S)N23)cc1OC (stereo unspecified) | > 200 | > 200 | 

Row | SMILES | EC50 [µM] | IC50 [µM] | outcome
23 | CC1C(=O)CC2C3(C)CCC2(C(C)C(=O)O)C(=O)C13 (stereo unspecified) | > 275 | 224 | 
24 | O=c1ccn(CC2(CO)CCC2)c(=O)[nH]1 | > 200 | > 200 | 
25 | Cc1cc(NS(=O)(=O)c2ccc(NC(=O)c3ccc4[nH]c5ccccc5c(=O)c4c3)cc2)no1 | > 200 | 93.3 | 
26 | CCCCNC1C2CCC(C)(C1O)C2(C)C (stereo unspecified) | > 200 | 174 | 
27 | C[C@@H]1S[C@H](c2c(F)cccc2F)n2c1nc1ccccc12 | 29.5 | 43.7 | 
28 | COC(=O)C1=C(C(=O)OC)C(OO)(c2ccccc2)OC1=O (stereo unspecified) | > 200 | > 200 | 
29 | Clc1cc2nc(C3CCCO3)[nH]c2cc1Cl (stereo unspecified) | > 200 | 66.1 | 
30 | Cc1cn(C2CC(O[Si](C)(C)C(C)(C)C)C(CN(O)C(N)=O)O2)c(=O)[nH]c1=O (stereo unspecified) | > 200 | > 200 | 
31 | COC(=O)C1(Cc2ccccc2)Cc2ccccc2C1=O (stereo unspecified) | > 200 | 85.1 | 
32 | O=C(Cc1ccccc1)NN1C(=O)C(Cl)C1c1ccc(Cl)cc1 (stereo unspecified) | > 102 | > 102 | 
33 | CCOC(=O)/C=C\SCC(N)C(=O)O (stereo unspecified) | > 575 | 309 | 
34 | CCC1(N=[N+]=[N-])C(=O)c2ccccc2N(C)C1=O (stereo unspecified) | > 200 | > 200 | 
35 | Cn1c(=O)n2c(-c3ccccc3)c(-c3ccccc3)n2c1=O | > 200 | 102 | 
36 | CC(=O)/C(=C/n1c(=S)[nH]c2ccc([N+](=O)[O-])cc21)C(=O)Nc1ccc(Cl)cc1 | > 100 | > 100 | 
37 | COC(=O)N1CC[C@@H]2CCC=C(c3cccc4c3OCO4)[C@@H]21 |  |  | inactive
38 | S=C(N1CCN(c2cccc(Cl)c2)CC1)N1CCN(c2cccc(Cl)c2)CC1 | > 200 | 72.4 | 
39 | O=C(NCCCNC(=O)c1ccccc1O)c1ccccc1O | > 200 | 69.2 | 
40 | CN(C)c1ccc(/C=C2\CCCCCC2=O)cc1 | > 200 | 26.9 | 
41 | CCCCC(/C=C\COC1CCCCO1)=C/C(=O)OCC (stereo unspecified) | > 126 | 77.6 | 
42 | COC(=O)/C(=N\NC(=S)NN)C(C(=O)C(=O)Nc1ccccc1C(N)=O)c1nc2ccccc2[nH]c1=O (stereo unspecified) | > 347 | > 347 | 
43 | COc1ccc(C2C(Cl)C(=O)N2n2cnc3ccccc3c2=O)cc1OC (stereo unspecified) | > 339 | 46.8 | 
44 | Nc1nc2c(ccc3ccccc32)[nH]1 |  |  | inactive
